Assay results reported in paper PMC4645160, “Targeting kinases with anilinopyrimidines: discovery of N-phenyl-N’-[4-(pyrimidin-4-ylamino)phenyl]urea derivatives as selective inhibitors of class III receptor tyrosine kinase subfamily” (Scientific Reports, 2015).
Where two headings read alike, the source gives them in different places.

Key:
BxPC3 cells = assay: MTT cytotoxicity assay, BxPC3 pancreatic adenocarcinoma cells; type: cell-based, human; conditions: for IC50: Homo sapiens, BXPC-3, MTT test, 72 h of drug treatment, read-out: BxPC3 IC50 (μM) ± SD
Procedure: Compounds active against at least one kinase among EGFR and class III RTKs were evaluated for their cytotoxic properties against two different human cancer cell lines, namely non small cells A549 lung cancer cells (sensitive to EGFR inhibitors)[46] and pancreatic BxPC3 adenocarcinoma (sensitive to both PDGFRβ and EGFR inhibitors)[47][48] cells. […] The results, expressed as IC50 values (μM) calculated from the dose-survival curves obtained after 72 h of drug treatment from the MTT test, are reported in Table 1.
(§1) All compounds, except derivative 27, were dissolved in DMSO just before the experiment, and a calculated amount of drug solution was added to the cell growth medium to a final solvent concentration of 0.5%, which had no discernible effect on cell killing. Compound 27 was dissolved in a 0.9% NaCl solution just before the experiment.
Human lung (A549), breast (MCF-7), pancreas (BxPC3), and colon (LoVo) carcinoma cell lines along with melanoma (A375) were obtained from American Type Culture Collection (ATCC, Rockville, MD). Human non-tumor embryonic kidney HEK293 cells were obtained from European Collection of Cell Cultures (ECACC, Salisbury, UK). Human cervical carcinoma A431cells were kindly provided by Prof. F. Zunino (Division of Experimental Oncology B, Istituto Nazionale dei Tumori, Milan, Italy). Human ovarian cancer 2008 cells were kindly provided by Prof. G. Marverti (Dept. of Biomedical Science of Modena University, Italy). Cell lines were maintained in the logarithmic phase at 37 °C in a 5% carbon dioxide atmosphere using the following culture media containing 10% fetal calf serum (Euroclone, Milan, Italy), antibiotics (50 units ∙ mL^−1 penicillin and 50 μg ∙ mL^−1 streptomycin) and 2 mM l-glutamine: i) RPMI-1640 medium (Euroclone) for MCF-7, A431, BxPC3 and 2008 cells; ii) F-12 HAM’S (Sigma Chemical Co.) for A549 and LoVo cells; iii) D-MEM medium (Euroclone) for HEK293 cells.
The growth inhibitory effect towards human cell lines was evaluated by means of MTT (tetrazolium salt reduction) assay. Briefly, 3–8 ∙ 10^3 cells/well, dependent upon the growth characteristics of the cell line, were seeded in 96-well microplates in growth medium (100 μL) and then incubated at 37 °C in a 5% carbon dioxide atmosphere. After 24 h, the medium was removed and replaced with a fresh one containing the test compound at the appropriate concentration. Triplicate cultures were established for each treatment. After 72 h, each well was treated with 10 μL of a 5 mg ∙ mL-1 MTT (3-(4,5-dimethylthiazol-2-yl)-2,5-diphenyltetrazolium bromide) saline solution, and after 5 h additional incubation, 100 μL of a sodium dodecylsulfate (SDS) solution in HCl 0.01 M were added. After overnight incubation, the inhibition of cell growth induced by the tested complexes was detected by measuring the absorbance of each well at 570 nm using a Bio-Rad 680 microplate reader (Bio-Rad, Hercules, CA). Mean absorbance for each drug dose was expressed as a percentage of the control untreated well absorbance and plotted vs drug concentration.

LoVo cells = assay: MTT cytotoxicity assay, LoVo colon carcinoma cells; type: cell-based; conditions: Homo sapiens, MTT test, 72 h, read-out: LoVo IC50 (μM) ± SD
Procedure: The cytotoxic profile of 19 and 27 was assessed on a wider panel of human tumor cell lines including also examples of breast (MCF-7), cervical (A431), colorectal (HCT-15), and ovarian (2008) cancers as well as melanoma (A375), besides lung (A549) and pancreatic (BxPC3) cancer cells. IC50 values, calculated from the dose-survival curves obtained after 72 h of drug treatment from the MTT test, are reported in Table 2. […] Both compounds were endowed with a cytotoxic potency higher than that of SU, eliciting IC50 values in the low micromolar range.
as §1
Human lung (A549), breast (MCF-7), pancreas (BxPC3), and colon (LoVo) carcinoma cell lines along with melanoma (A375) were obtained from American Type Culture Collection (ATCC, Rockville, MD). Human non-tumor embryonic kidney HEK293 cells were obtained from European Collection of Cell Cultures (ECACC, Salisbury, UK). Human cervical carcinoma A431cells were kindly provided by Prof. F. Zunino (Division of Experimental Oncology B, Istituto Nazionale dei Tumori, Milan, Italy). Human ovarian cancer 2008 cells were kindly provided by Prof. G. Marverti (Dept. of Biomedical Science of Modena University, Italy). […]
The growth inhibitory effect towards human cell lines was evaluated by means of MTT (tetrazolium salt reduction) assay. […] After overnight incubation, the inhibition of cell growth induced by the tested complexes was detected by measuring the absorbance of each well at 570 nm using a Bio-Rad 680 microplate reader (Bio-Rad, Hercules, CA). Mean absorbance for each drug dose was expressed as a percentage of the control untreated well absorbance and plotted vs drug concentration.

PDGFRβ = biological target: T1, PDGFRβ (Homo sapiens, UniProt P09619); assay: KinomeScan Kd determination, PDGFRβ; type: binding; conditions: for KdRTK/KdKIT, PDGFRβ: Kd PDGFRβ over Kd KIT; for Kd: KinomeScan
T1 construct: purchased DiscoverX (KinomeScan service)
T1 sequence (P09619 33-1106): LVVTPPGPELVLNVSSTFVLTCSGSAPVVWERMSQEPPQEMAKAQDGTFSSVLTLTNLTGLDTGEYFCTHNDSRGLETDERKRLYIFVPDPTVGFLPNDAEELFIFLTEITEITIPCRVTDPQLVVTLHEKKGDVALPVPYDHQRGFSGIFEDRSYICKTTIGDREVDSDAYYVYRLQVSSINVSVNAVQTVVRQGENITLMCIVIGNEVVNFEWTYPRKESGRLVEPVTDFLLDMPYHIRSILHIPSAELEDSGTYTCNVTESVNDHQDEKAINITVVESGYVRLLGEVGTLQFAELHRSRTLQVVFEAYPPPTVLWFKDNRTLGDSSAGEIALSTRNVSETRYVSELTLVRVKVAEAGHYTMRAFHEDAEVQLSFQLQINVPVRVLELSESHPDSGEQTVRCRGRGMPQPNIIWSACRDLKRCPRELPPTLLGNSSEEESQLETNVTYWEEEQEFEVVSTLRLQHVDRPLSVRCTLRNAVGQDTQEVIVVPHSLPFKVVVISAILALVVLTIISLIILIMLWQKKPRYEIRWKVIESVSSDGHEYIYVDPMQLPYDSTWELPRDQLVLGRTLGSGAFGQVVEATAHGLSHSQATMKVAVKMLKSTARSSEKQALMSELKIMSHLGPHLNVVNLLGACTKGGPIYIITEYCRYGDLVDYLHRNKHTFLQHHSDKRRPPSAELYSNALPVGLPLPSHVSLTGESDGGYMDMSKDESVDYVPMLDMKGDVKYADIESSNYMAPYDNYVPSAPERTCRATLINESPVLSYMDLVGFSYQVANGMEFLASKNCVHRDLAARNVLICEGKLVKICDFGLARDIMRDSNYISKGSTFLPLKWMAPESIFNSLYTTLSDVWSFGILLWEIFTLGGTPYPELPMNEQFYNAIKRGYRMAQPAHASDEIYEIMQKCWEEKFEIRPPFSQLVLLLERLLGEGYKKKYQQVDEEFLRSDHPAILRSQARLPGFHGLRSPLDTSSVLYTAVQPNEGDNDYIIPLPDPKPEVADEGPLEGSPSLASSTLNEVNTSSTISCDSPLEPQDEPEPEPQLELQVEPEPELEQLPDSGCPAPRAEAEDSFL
Procedure: (§2) The compounds were evaluated using the KinomeScan™ platform (http://www.discoverx.com/services/drug-discovery-development-services/kinase-profiling/kinomescan), that measures the ability of the test compound to disrupt the complex between a high affinity ATP-mimic probe immobilized on a solid support and the kinase of interest. The KinomeScan is a very helpful technology for the fast and reliable screening of a number of compounds against a wide and customizable panel of kinases. Besides, it is not based on the use of hazardous radioactive ^32P-ATP and has a very low rate of false positive (<1%)[44]. The screening platform outputs a “Percent of Control” (POC) value, statistically correlated to the dissociation constant (Kd) value (http://www.discoverx.com/tools-resources/leadhunter-study-reports-data-analysis), for each pair of kinase/ligand. The POC is calculated as reported in equation (1): […]
(§3) The ability of compounds 19 and 27 to bind the class III RTK members was measured (Table 2; see also Figs S3 and S4 for dose/response curves).
(§4) Figure S3. Dose/response curve for compound 19 against tested kinases for Kd determination. The amount of kinase measured by qPCR (Signal; y-axis) is plotted against the corresponding compound concentration in nM in log10 scale (x-axis). Data points marked with an "x" were not used for Kd determination.
(§5) (1 picture or pasted object on this page, not shown here)
(§6) Figure S4. Dose/response curve for compound 27 against tested kinases for Kd

HEK293 cells = assay: MTT cytotoxicity assay, non-tumor HEK293 cells; type: cell-based, human; conditions: for IC50: Homo sapiens, HEK293, MTT test, 72 h, non-tumor cells, read-out: HEK293 IC50 (μM) ± SD
Procedure: F. Zunino (Division of Experimental Oncology B, Istituto Nazionale dei Tumori, Milan, Italy).
The growth inhibitory effect towards human cell lines was evaluated by means of MTT (tetrazolium salt reduction) assay. […] Triplicate cultures were established for each treatment.

CSF1R = biological target: T2, CSF1R (Homo sapiens, UniProt P07333); assay: KinomeScan Kd determination, CSF1R; type: binding; conditions: for KdRTK/KdKIT, CSF1R: Kd CSF1R over Kd KIT; for Kd: KinomeScan
T2 construct: purchased DiscoverX (KinomeScan service)
T2 sequence (P07333 20-972): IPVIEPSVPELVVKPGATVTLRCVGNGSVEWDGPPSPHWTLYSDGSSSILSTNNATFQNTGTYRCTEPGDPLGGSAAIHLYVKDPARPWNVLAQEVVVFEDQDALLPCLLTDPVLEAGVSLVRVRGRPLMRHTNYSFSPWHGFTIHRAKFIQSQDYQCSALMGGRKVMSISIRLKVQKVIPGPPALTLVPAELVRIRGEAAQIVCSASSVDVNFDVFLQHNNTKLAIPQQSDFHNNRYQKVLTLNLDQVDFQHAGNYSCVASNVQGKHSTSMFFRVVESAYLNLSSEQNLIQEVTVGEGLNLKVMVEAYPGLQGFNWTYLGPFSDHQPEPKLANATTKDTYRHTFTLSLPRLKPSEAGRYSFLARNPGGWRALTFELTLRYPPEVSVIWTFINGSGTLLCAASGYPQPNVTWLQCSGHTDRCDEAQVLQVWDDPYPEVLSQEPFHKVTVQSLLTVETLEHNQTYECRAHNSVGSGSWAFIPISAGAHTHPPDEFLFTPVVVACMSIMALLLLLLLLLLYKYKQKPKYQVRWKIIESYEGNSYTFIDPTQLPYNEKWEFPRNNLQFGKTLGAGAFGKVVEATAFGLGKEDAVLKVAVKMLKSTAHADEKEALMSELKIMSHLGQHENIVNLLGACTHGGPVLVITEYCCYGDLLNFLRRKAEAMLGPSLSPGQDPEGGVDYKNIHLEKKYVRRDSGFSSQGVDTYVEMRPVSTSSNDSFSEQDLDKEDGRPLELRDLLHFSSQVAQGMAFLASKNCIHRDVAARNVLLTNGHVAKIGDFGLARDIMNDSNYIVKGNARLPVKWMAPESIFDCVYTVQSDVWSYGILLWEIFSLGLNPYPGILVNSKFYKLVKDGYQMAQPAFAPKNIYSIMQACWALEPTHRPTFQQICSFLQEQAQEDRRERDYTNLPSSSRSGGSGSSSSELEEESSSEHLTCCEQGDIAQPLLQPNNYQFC
Procedure: as §2, §3, §4, §5, §6

Row | Structure (SMILES) | IC50 (BxPC3 cells) [µM] | Potency relative to SU (BxPC3) (BxPC3 cells; ratio between IC50 of sunitinib and IC50 of tested compound, BxPC3) | IC50 (LoVo cells) [µM] | Potency improvement Kd19/Kd27, PDGFRβ (PDGFRβ; 27 versus 19) | KdRTK/KdKIT, PDGFRβ (PDGFRβ) | Kd (PDGFRβ) [nM] | IC50 (HEK293 cells) [µM] | Potency improvement Kd19/Kd27, CSF1R (CSF1R; 27 versus 19) | KdRTK/KdKIT, CSF1R (CSF1R) | Kd (CSF1R; bound stated, read-out: Kd against CSF1R) [nM] | Kd (CSF1R; read-out: Kd (nM) CSF1R) [nM] | Selectivity Index (HEK293 cells; IC50 toward non cancerous HEK293 cells divided by the average IC50 for the malignant cells (A549, BxPC3)) | Selectivity index, folds higher than that calculated with SU (HEK293 cells; SI of compound versus SI of SU)
1 | O=C(CN1CCOCC1)Nc1cccc(-c2cc(Nc3ccc(NC(=O)Nc4ccccc4)cc3)ncn2)c1 [Compound 27] | 0.81 ± 0.32 | 6 | 7.76 ± 1.28 | 1.1 | 7 | 70 | 10 | 2.6 | 110 | > 1000 | 1100 |  | 
2 | O=C(Nc1ccccc1)Nc1ccc(Nc2cc(-c3ccccc3)ncn2)cc1 [Compound 19] | 0.77 ± 0.21 |  | 7.45 ± 1.53 |  | 4 | 80 | 7.33 ± 1.75 |  | 132 |  | 2900 | 3.84 | approximately 1.5
